In patent publication US9757402B2, “Method for measuring cell-to-cell transmission of α-synuclein aggregates using bimolecular fluorescence complementation system and method for screening a substance for preventing or treating neurodegenerative disease using the same” (KONKUK UNIVERSITY INDUSTRIAL COOPERATION CORP, priority 2014, dated 2017):

Columns and labels:
Assay type in all cases: in vivo, Caenorhabditis elegans
[1] = tested on: V1S+SV2 and daf-16(mu86); V1S+SV2 animals; assay: BiFC-positive inclusion body formation / aggregate transmission in C. elegans BiFC model with GlcNAc treatment
Method: Pmyo-2::V1S and Pflp-21::SV2-ICR-DsRed plasmids were co-injected into the gonads of late L4-stage N2 worms with a selection marker, pRF4 which expresses a mutant collagen gene, rol-6(su1006) (Mello, C. C., et al. 1991. Efficient gene transfer in C. elegans: extrachromosomal maintenance and integration of transforming sequences. The EMBO J 10, 3959-3970), to prepare double transgenic line expressing the BiFC pair. As a negative control for BiFC, Pmyo-2::V1S alone was injected into N2 worms with pRF4, and Pflp-21::SV2-ICR-DsRed alone was injected into unc-119(ed3) mutant worms with a selection marker, pCFJ151, which expresses unc-119(+) gene (Frokjaer-Jensen, et al. 2008. Single-copy insertion of transgenes in Caenorhabditis elegans. Nat. Genet 40, 1375-1383). The plasmid Pmyo-2::V1 was prepared to express the BiFC partial sequence only by introducing the stop codon right before the α-synuclein coding sequence in Pmyo-2::V1S and was prepared using a QuickChange Site-Directed Mutagenesis Kit (Stratagene, La Jolla, Calif.). Pmyo-2::V1 and Pflp-21::SV2-ICR-DsRed plasmids were then co-injected into N2 with pRF4. In addition, Pflp-21::DsRed was injected into N2 with pRF4 as a control for the effects of general protein overexpression in neurons. For chromosomal integration of the introduced plasmids, injected lines were exposed to UV irradiation. […]

α-synuclein aggregates = assay: Dot blot and western blot of α-synuclein aggregates in transgenic worms
Method: N-acetylglucosamine (GlcNAc) (Sigma) was dissolved in distilled water to prepare 1 M as stock solution. The stock solution was diluted with LB liquid medium. The L4-stage worms of each transgenic line were transferred to NGM plates containing a final concentration of 10 mM GlcNAc. Adult worms were washed with M9 buffer and subsequently with PBS containing 1% Triton X-100. The worm pellet was sonicated in PBS containing 1% Triton X-100, 1% (v/v) protease inhibitor cocktail (Sigma) and centrifuged to obtain the Triton-soluble (supernatant) and insoluble (pellet) fractions. Protein concentration was measured using the BCA protein assay kit (Pierce, Rockford, USA). Protein samples (3 μg for α-synuclein expression test and 50 μg to detect polyubiquitin proteins) were loaded onto 12% SDS-PAGE gels. The primary antibodies used for western blotting were monoclonal anti-α-synuclein antibody, 274 mAb and anti-ubiquitn antibody (ab7254; Abcam, Cambridge, Mass.). Chemiluminescence detection was performed using the LAS-3000 luminescence image analyzer, (Fujifilm, Tokyo, Japan), and Multi Gauge (y3.0) software. Adult worms of each strain were washed with M9 buffer and subsequently with PBS containing 1% Triton X-100. […] Chemiluminescence detection was performed using the LAS-3000 luminescence image analyzer and Multi Gauge (v3.0) software.

[2] = tested on: V1S+SV2 and daf-16(mu86); V1S+SV2 animals; assay: Life span assay with GlcNAc treatment; details: 10 mM GlcNAc, both V1S+SV2 and daf-16(mu86)
Method: Eggs laid by adult mother worms were synchronously grown up to the L4 larval stage on NGM plates seeded with E. coli OP50 at 20° C. The L4-stage worms were transferred to NGM plates containing 100 mM 5-fluoro-2′-deoxyuridine (Sigma) to prevent them from producing progeny. The number of worms that were alive or dead was recorded every 1-2 days.
(§1) N-acetylglucosamine (GlcNAc) (Sigma) was dissolved in distilled water to prepare 1 M as stock solution. The stock solution was diluted with LB liquid medium. The L4-stage worms of each transgenic line were transferred to NGM plates containing a final concentration of 10 mM GlcNAc.

[3] = tested on: lysosomal genes, sqst-1/p62; assay: Expression of lysosomal and autophagy genes (qPCR) upon GlcNAc treatment
Method: as §1
Adult transgenic worms derived from daf-16(mu86) mutants with or without hlh-30p::hlh-30 expression were collected, and washed in M9 buffer. The worms in the buffer were sonicated and the samples were subjected to several freeze-thaw cycles using liquid nitrogen. RNA was extracted with Trizol (Invitrogen, Carlsbad, Calif.) and purified using the RNeasy kit (Qiagen, Valencia, Calif., USA). Each cDNA was synthesized from 500 ng of total RNA using the iScript cDNA synthesis kit (Bio-Rad, Hercules, Calif.). For real-time PCR, target genes and specific primers were mixed with SYBR Premix Ex Taq II (Takara, Shiga, Japan) in 96-well plates. Specific primers previously designed by other group were used (Lapierre, L. R., et al. (2013). The TFEB orthologue HLH-30 regulates autophagy and modulates longevity in Caenorhabditis elegans. Nat. Commun 4, 2267). The DNA products were analyzed using the 7500 Real-Time PCR system (Applied Biosystems, Foster City, Calif.). […]

[4] = tested on: single tissue expression lines carrying V1S or SV2 alone in N2 and daf-16(mu86) mutant worms; assay: GlcNAc treatment of single tissue expression lines (V1S or SV2 alone)
Method: Pmyo-2::V1S and Pflp-21::SV2-ICR-DsRed plasmids were co-injected into the gonads of late L4-stage daf-2(e1370) and daf-16(mu86) mutant worms with the pRF4. As a control for aging related BiFC models, Pmyo-2::V1S or Pflp-21::SV2::ICR::DsRed alone was injected into the gonads of late L4-stage of N2 and daf-16(mu86) mutant worms with pRF4. After several transgenic lines containing the introduced plasmids were obtained, three representative lines in each mutant background were used for experiments.
Worms were immobilized with 10 mM sodium azide in M9 buffer, mounted on 2% agar pads, and covered with a coverslip. Images of the worms were acquired using Olympus FV1000 confocal laser scanning microscopy (Olympus, Tokyo, Japan).
as §1
Adult worms of each strain were washed with M9 buffer and subsequently with PBS containing 1% Triton X-100. The worm pellet was sonicated in PBS containing 1% Triton X-100, 1% (v/v) protease inhibitor cocktail. Protein samples (500 ng) were loaded onto nitrocellulose membranes, which were then dried and incubated in blocking solution. The primary antibodies used for dot blotting were the monoclonal anti-α-synuclein antibodies 274 mAb and Syn-O2, the latter of which is specific for aggregated α-synuclein. Chemiluminescence detection was performed using the LAS-3000 luminescence image analyzer and Multi Gauge (v3.0) software.

[5] = tested on: asp-4(ok2693); V1S+SV2 and asp-1(tm666); V1S+SV2 worms; assay: Epistasis analysis: GlcNAc treatment of cathepsin mutant BiFC worms; details: asp-1 and asp-4 mutant transgenic animals, in contrast to V1S+SV2 worms
Description: A plasmid expressing hlh-30p::hlh-30::gfp was obtained from Dr. Malene Hansen (Sanford-Burnham Medical Research Institute, CA, USA). The plasmid hlh-30p::hlh-30 was designed to introduce codon before the GFP coding sequence using a QuickChange Site-Directed Mutagenesis Kit to inhibit GFP expression. As a control, each Pmyo-2::V1S or Pflp 21::SV2-ICR-DsRed and hlh-30p::hlh-30 were co-injected into the gonads of late L4-stage N2 worm with pRF4. The plasmids expressing Pmyo-2::V1S, Pflp-21::SV2-ICR-DsRed and hlh-30p::hlh-30 were co-injected into the gonads of late L4-stage daf-16(mu86) mutant worms with pRF4. To analyze lysosomal dysfunction, asp-4(ok2693) and asp-1(tm666) mutant worms, in which the lysosomal enzyme cathepsin gene is inactivated, were used. Pmyo-2::V1S and Pflp-21::SV2-ICR-DsRed plasmids were co-injected into the gonads of late L4-stage mutant worms with pRF4. After transgenic lines containing the introduced plasmids were obtained, three representative lines of each genotype were used for experiments
as §1

[6] = tested on: polyubiquitinated proteins; assay: Steady state levels of polyubiquitinated proteins (western blotting) in transgenic worms; details: transgenic animals treated with GlcNAc
Method: N-acetylglucosamine (GlcNAc) (Sigma) was dissolved in distilled water to prepare 1 M as stock solution. The stock solution was diluted with LB liquid medium. The L4-stage worms of each transgenic line were transferred to NGM plates containing a final concentration of 10 mM GlcNAc. Adult worms were washed with M9 buffer and subsequently with PBS containing 1% Triton X-100. The worm pellet was sonicated in PBS containing 1% Triton X-100, 1% (v/v) protease inhibitor cocktail (Sigma) and centrifuged to obtain the Triton-soluble (supernatant) and insoluble (pellet) fractions. Protein concentration was measured using the BCA protein assay kit (Pierce, Rockford, USA). Protein samples (3 μg for α-synuclein expression test and 50 μg to detect polyubiquitin proteins) were loaded onto 12% SDS-PAGE gels. The primary antibodies used for western blotting were monoclonal anti-α-synuclein antibody, 274 mAb and anti-ubiquitn antibody (ab7254; Abcam, Cambridge, Mass.). Chemiluminescence detection was performed using the LAS-3000 luminescence image analyzer, (Fujifilm, Tokyo, Japan), and Multi Gauge (y3.0) software.

[7] = tested on: V1S+SV2 and daf-16(mu86); V1S+SV2 animals; assay: Nerve degeneration in C. elegans BiFC model with GlcNAc treatment; details: 10 mM GlcNAc, both V1S+SV2 and daf-16(mu86)
Method: Worms were immobilized with 10 mM sodium azide in M9 buffer, mounted on 2% agar pads, and covered with a coverslip. Images of the worms were acquired using Olympus FV1000 confocal laser scanning microscopy (Olympus, Tokyo, Japan). N-acetylglucosamine (GlcNAc) (Sigma) was dissolved in distilled water to prepare 1 M as stock solution. The stock solution was diluted with LB liquid medium. The L4-stage worms of each transgenic line were transferred to NGM plates containing a final concentration of 10 mM GlcNAc. The present inventors then examined the degeneration of axonal processes from the URA motor neuron (Rogers et al., 2003). These nerves were intact in the wild-type N2 at day 8. Expression of SV2 in neurons caused neuritic bleb formation and nerve fragmentation in a small number of worms (FIGS. 23g, 23h, 23i, 23j, and 23k), indicating autonomous cellular toxicity of α-synuclein in neurons. These degenerative phenotypes were further exacerbated when […] was expressed in the pharyngeal muscle, and approximately 15% of nerves were completely lost (FIG. 23k). To verify nerve fragmentation, 3-D reconstruction of the stacked images of nerve processes was performed. […] Nerve degeneration worsened as the transgenic worms aged (FIG. 23j).

[8] = tested on: V1S+SV2 and daf-16(mu86); V1S+SV2 animals; assay: Pharyngeal pumping analysis with GlcNAc treatment; details: 10 mM GlcNAc, both V1S+SV2 and daf-16(mu86)
Method: as §1, with “Pharyngeal pumping was counted for 1 min at RT using a fluorescence microscope. 25 worms from each strain were analyzed. The data were expressed as PPM (Pumps Per Minute). N-acetylglucosamine” for “N-acetylglucosamine”

CC(=O)N[C@H]1C(O)O[C@H](CO)[C@@H](O)[C@@H]1O (stereo partly drawn) [GlcNAc, N-acetylglucosamine]
formation of BiFC-positive inclusion bodies ([1]; 10 mM GlcNAc from L4-stage, both V1S+SV2 and daf-16(mu86), V1S+SV2 animals): reduced | transmission of α-synuclein aggregates ([1]; BiFC experimental animal model): inhibiting | levels of high molecular weight (HM) α-synuclein aggregates (α-synuclein aggregates; Triton-insoluble (Tx-insol) fraction of transgenic worms, western blot): significantly decreased | β-sheet-rich α-synuclein aggregates (α-synuclein aggregates; dot blot with Syn-02 antibody, transgenic worms): reduced | life span [2]: significantly alleviated | life span ([2]; listed as N-acetylglucosamine): extended | expression of lysosomal genes and autophagy gene sqst-1/p62 [3]: increased | pathogenic phenotypes (nerve degeneration, pumping behavior, life span) ([4]; V1S or SV2 alone in N2 and daf-16(mu86), versus untreated animals): did not exhibit significant changes | expression levels of α-synuclein ([4]; dot blot, GlcNAc treatment): not changed | neuronal expression of flp-21 promoter (Ds-Red) ([4]; with or without GlcNAc treatment): strictly confined in neuronal cells | aging-related phenotypes [5]: not rescued | levels of polyubiquitinated proteins [6]: decreased | phenotypes for nerve degeneration [7]: significantly alleviated | pumping behavior [8]: significantly alleviated | pumping behavior ([8]; listed as N-acetylglucosamine): increased
